Laboratory results taken from PMC12715762, “Discovery of VU6052254: A Novel, Potent M1 Positive Allosteric Modulator” (ACS Chemical Neuroscience, 2025).

Tests used:
Muscarinic M2 = Muscarinic M2 (Homo sapiens, UniProt P08172); assay: Eurofins radioligand binding
[1] = plasma protein binding, equilibrium dialysis (human); assay type: in vitro ADME; settings: pH 7.4, read-out: fu,plasma
Method: (§1) Plasma protein binding and Brain homogenate binding: Determination of fraction unbound (f u) in plasma was conducted in vitro via equilibrium dialysis using HTDialysis (HTD) membrane plates. The top half of the plate was filled with 100 uL of Dubelco’s Phosphate Buffered Saline, pH 7.4 (DPBS). Compounds were diluted into plasma from each species (5 µM final concentration), which was aliquoted in triplicate to the ‘bottom half’ of the prepared HTD plate wells. The HTD plate was sealed and incubated for 6 hours at 37 °C. Following incubation, each well (both top and bottom halves) were transferred (20 µL) to the corresponding wells of a 96-shallow-well (V-bottom) plate. […]
(§2) The unbound fraction (f u) was calculated following the equation below, and mean values for each species were calculated from 3 replicates.
(§3) A similar approach was used to determine the degree of brain homogenate binding, which employed the same methodology and procedure with the following modifications: 1) a final compound concentration of 1 μM was used, 2) naïve rat brains were homogenized in DPBS (1:3 composition of brain: DPBS, w/w) using a Mini-Bead Beater™ machine in order to obtain brain homogenate, which was then treated in the same manner as the plasma samples in the previously described plasma protein binding assay. Fraction unbound for both plasma and brain samples was determined using Equation 4. […]

Imidazoline I2, Central = assay: Eurofins radioligand binding; settings: Rat
Histamine H3 = Histamine H3 (Homo sapiens, UniProt Q9Y5N1); assay: Eurofins radioligand binding
Endothelin ETB = Endothelin ETB (Homo sapiens, UniProt P24530); assay: Eurofins radioligand binding
Sodium Channel, Site 2 = assay: Eurofins radioligand binding; settings: Site 2, Rat
Adrenergic β2 = Adrenergic β2 (Homo sapiens, UniProt P07550); assay: Eurofins radioligand binding
[2] = satellite IP PK study, brain exposure; assay type: in vivo; settings: C57Bl6 mice, 30% captisol
From the text: These effects were absent when performed in M1 KO mice, confirming that these AEs are in fact M1-mediated. […] Total brain drug levels correlate better with PD efficacy ,− , versus free drug levels in brain, as the arbitrarily selected EC20 value for the in vitro PAM EC50 potency determination likely underestimates endogenous ACh tone. Thus, there is a significant therapeutic index for PAM 7 from this assay, and robust target-mediated convulsions were not present. To assess peripheral cholinergic toxicity, a modified Irwin neurological battery was performed to score autonomic or somatosensory side effects (Figure ). […] Still, if the dose and exposure required for efficacy afforded the appropriate therapeutic window, then PAM 7 could still advance.

Dopamine D1 = Dopamine D1 (Homo sapiens, UniProt P21728); assay: Eurofins radioligand binding
4 strain = assay: AMES assay (4 strain, with and without S9); assay type: cell-based
[3] = brain homogenate binding (rat); assay type: in vitro ADME; settings: pH 7.4, rat (r), read-out: fu,brain
Method: as §1, §2, §3

rats = assay: 14-day rat toxicology and toxicokinetic study; assay type: in vivo; settings: for cholinergic/SLUDGE adverse effects in 14-day rat study: 30 and 300 mg/kg PO; for change in serum creatinine concentration: males
Method: (§4) PAM 7, after a 250 g scale-up, advanced into 14-day rat toxicology studies, with vehicle (PEG-400), 30 mg/kg PO and 300 mg/kg PO cohorts, N = 6 per sex per cohort. […] Higher serum creatinine concentrations were however noted in males at both dose levels (+100% at 30 mg/kg/day and +300% at 300 mg/kg/day). […] Based on the observations of correlative clinical and anatomic kidney toxicity findings in an exploratory 14-day toxicity and toxicokinetics rat study, in conjunction with uncertain margins to projected systemic human therapeutic efficacy and CYP3A4 induction concerns, the development of PAM 7 was discontinued.

[4] = 14-day rat toxicology and toxicokinetic study; assay type: in vivo; settings: both sexes, rat, plasma, po, PEG-400, rat
Method: as §4

Serotonin (5-HT1A) = Serotonin (5-HT1A) (Homo sapiens, UniProt P08908); assay: Eurofins radioligand binding
[5] = 300 mg/kg, Day 14, 300 mg/kg PO

Adrenergic β2, sequence (P07550 whole entry): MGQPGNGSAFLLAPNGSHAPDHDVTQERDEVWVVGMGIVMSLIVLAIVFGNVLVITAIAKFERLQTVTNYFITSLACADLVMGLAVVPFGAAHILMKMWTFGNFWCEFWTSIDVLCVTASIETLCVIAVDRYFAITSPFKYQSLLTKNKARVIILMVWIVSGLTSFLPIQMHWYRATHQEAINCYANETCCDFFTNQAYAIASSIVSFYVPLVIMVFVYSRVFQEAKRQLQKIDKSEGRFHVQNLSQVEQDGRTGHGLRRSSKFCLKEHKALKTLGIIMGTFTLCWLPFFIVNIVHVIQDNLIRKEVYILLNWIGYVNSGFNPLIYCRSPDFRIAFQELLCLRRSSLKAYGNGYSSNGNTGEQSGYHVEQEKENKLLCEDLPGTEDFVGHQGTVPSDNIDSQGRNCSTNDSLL
Dopamine D1, sequence (P21728 whole entry): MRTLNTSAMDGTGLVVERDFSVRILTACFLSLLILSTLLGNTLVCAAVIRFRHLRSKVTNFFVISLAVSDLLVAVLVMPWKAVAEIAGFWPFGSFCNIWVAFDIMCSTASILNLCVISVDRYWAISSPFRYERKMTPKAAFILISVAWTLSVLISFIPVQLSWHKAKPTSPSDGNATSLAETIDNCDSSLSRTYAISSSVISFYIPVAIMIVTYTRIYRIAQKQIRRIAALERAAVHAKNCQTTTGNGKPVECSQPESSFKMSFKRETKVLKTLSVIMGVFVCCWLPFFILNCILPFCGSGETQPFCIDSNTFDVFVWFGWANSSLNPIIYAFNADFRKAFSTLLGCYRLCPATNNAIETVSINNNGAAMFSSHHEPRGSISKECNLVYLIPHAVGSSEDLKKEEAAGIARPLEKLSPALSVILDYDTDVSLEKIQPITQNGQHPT
Endothelin ETB, sequence (P24530 27-442): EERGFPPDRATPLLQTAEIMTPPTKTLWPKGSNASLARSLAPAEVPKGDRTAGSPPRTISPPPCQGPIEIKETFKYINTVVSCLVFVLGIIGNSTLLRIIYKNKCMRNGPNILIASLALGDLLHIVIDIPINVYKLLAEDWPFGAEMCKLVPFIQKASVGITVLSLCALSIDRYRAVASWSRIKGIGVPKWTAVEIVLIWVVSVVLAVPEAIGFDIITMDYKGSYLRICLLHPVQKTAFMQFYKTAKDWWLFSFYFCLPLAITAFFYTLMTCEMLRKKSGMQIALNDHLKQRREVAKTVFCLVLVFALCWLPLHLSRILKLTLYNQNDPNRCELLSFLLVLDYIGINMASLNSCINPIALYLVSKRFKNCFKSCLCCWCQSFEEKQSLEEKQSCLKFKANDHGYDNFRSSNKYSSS
Serotonin (5-HT1A), sequence (P08908 whole entry): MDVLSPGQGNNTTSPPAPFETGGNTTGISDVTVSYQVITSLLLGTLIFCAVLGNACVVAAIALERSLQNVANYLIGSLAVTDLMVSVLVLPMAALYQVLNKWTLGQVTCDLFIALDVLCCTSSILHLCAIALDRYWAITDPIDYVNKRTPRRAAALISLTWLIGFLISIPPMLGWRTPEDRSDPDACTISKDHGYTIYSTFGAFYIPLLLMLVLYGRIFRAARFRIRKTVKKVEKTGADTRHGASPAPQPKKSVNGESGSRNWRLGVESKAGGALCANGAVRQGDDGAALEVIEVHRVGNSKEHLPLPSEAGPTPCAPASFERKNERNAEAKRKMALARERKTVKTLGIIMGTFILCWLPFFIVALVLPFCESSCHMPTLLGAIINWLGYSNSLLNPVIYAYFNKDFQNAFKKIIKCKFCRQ
Muscarinic M2, sequence (P08172 whole entry): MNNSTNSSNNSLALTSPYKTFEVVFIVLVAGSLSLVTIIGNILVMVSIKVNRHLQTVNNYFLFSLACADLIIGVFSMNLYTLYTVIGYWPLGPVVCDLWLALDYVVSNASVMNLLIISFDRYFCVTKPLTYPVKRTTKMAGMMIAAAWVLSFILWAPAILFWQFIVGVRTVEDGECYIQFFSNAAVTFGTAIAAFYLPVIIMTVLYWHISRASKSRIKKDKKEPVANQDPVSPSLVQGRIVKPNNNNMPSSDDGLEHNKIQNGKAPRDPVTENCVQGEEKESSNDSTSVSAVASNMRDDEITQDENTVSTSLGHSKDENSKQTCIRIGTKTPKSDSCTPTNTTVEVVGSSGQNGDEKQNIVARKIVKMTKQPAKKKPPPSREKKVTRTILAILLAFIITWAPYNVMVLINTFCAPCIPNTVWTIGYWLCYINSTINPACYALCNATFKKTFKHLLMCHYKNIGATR
Histamine H3, sequence (Q9Y5N1 whole entry): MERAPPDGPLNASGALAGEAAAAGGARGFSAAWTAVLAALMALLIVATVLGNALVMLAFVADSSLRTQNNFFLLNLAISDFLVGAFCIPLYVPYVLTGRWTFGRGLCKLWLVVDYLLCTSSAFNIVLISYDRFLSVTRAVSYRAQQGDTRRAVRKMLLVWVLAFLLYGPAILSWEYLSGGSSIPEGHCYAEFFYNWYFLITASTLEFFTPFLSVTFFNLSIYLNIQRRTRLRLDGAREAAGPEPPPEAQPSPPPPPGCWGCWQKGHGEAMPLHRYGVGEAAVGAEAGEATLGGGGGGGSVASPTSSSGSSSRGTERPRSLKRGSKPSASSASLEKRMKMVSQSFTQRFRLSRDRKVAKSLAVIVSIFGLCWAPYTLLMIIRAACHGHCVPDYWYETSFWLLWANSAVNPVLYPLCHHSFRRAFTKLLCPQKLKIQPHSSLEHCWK

In the case of `Cn1cc2c(-c3cc(F)c(CN4Cc5ncccc5C4=O)c(F)c3)ccc(C(C)(C)O)c2n1` [compound 7], the inhibition at 10 µM (Muscarinic M2) is reported as 3%, the fraction unbound at 6 h, 5 µM [1] is reported as 0.037 and the “% Inhibition at 10 µM” value (Imidazoline I2, Central) is reported as 64%. The inhibition at 10 µM (Histamine H3) was -11%, the inhibition at 10 µM (Endothelin ETB) was 6% and the “% Inhibition at 10 µM” value (Sodium Channel, Site 2) was 22%. The inhibition at 10 µM (Adrenergic β2) was -4%, the total brain exposure ([2]; 56.6 mg/kg IP) was 29.8 µM and the total brain exposure ([2]; 100 mg/kg IP) was 42.2 µM. The inhibition at 10 µM (Dopamine D1) was 6%, the AMES assay result (4 strain) was “negative” and the fraction unbound at 6 h, 1 μM [3] was 0.027. For the same compound, the “microscopic pathology of kidney” value (rats; 300 mg/kg/day, result in words) was “pyknotic cells were also seen in collecting tubules, and less extensively, in the renal papilla”, the “cholinergic/SLUDGE adverse effects in 14-day rat study” value (rats; result in words) was “No cholinergic/SLUDGE adverse effects were observed” and the “cholinergic/SLUDGE adverse effects in 14-day rat study” value (rats; result in words, listed as VU6052254) was “no cholinergic adverse effects”. The “microscopic pathology of renal cortex and medulla” value (rats; both dose levels, result in words) was “dose-related increase in number of pyknotic cells in the lumen of descending tubules/proximal collecting tubules”, the “total plasma concentration relative to the plasma concentration at MED in the CFC assay (0.3 mg/kg PO)” value (rats; first of the two printed values (30 mg/kg cohort implied)) was 125 x and the fibrinogen concentration (rats; males administered 300 mg/kg, result in words) was “minimally higher fibrinogen concentration”. The hematology test results (rats; males administered up to 30 mg/kg, result in words) was “no PAM 7-related effects noted in hematology test results”, the “change in serum creatinine concentration” value (rats; 30 mg/kg/day) was “+100%” and the “change in serum creatinine concentration” value (rats; 300 mg/kg/day) was “+300%”. For the same compound, the “organ weights or histology” value (rats; result in words) was “no gross changes on organ weights or histology”, the “total plasma concentration relative to the plasma concentration at MED in the CFC assay (0.3 mg/kg PO)” value (rats; second of the two printed values (300 mg/kg cohort implied)) was 227 x and the AUC(0-t) ([4]; 30 mg/kg, Day 1, 30 mg/kg PO) was 224 µM·h. The Cmax ([4]; 30 mg/kg, Day 1, 30 mg/kg PO) was 20.9 µM, the AUC(0-t) ([4]; 30 mg/kg, Day 14, 30 mg/kg PO) was 107 µM·h and the Cmax ([4]; 30 mg/kg, Day 14, 30 mg/kg PO) was 10 µM. It also gave an AUC(0-t) ([4]; 300 mg/kg, Day 1, 300 mg/kg PO) of 758 µM·h, a Cmax ([4]; 300 mg/kg, Day 1, 300 mg/kg PO) of 37.9 µM and an AUC(0-t) [4, 5] of 909 µM·h. The Cmax [4, 5] was 52.9 µM and the inhibition at 10 µM (Serotonin (5-HT1A)) was 12%.
